According to patent US9980943B2, “Methods of treating muscular dystrophy” (BOARD OF REGENTS OF THE NEVADA SYSTEM OF HIGHER EDUCATION, …, priority 2013, dated 2018):

Assays:
Assay type in all cases: cell-based, mouse
[1] = system: β-galactosidase in CMV-LacZ C2C12 myoblasts; assay: CMV-LacZ secondary screen in C2C12 myoblasts (β-Gal stabilizing assay); conditions: for CMV-LACZ in Myoblasts (β-galactosidase activity relative to DMSO): CMV-LacZ C2C12 myoblasts; for CMV-LACZ in Myoblasts, value relative to DMSO: SU9516 analogs, C2C12 CMV-LacZ, N=2
How it was run: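 A secondary screen identifies compounds that stabilize β-gal independently of the native promoter, using CMV-LacZ C2C12 cells. Curves span 0.5–40 μM at six levels, in duplicate.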

[2] = system: α7 integrin (LacZ reporter in α7+/LacZ myotubes); assay: Myotube α7 integrin FDG assay (Burkin assay in myotubes, 96-well); conditions: for Burkin Assay in Myotubes, value relative to DMSO: SU9516 analogs, 96-well, N=3-6
[3] = system: β-galactosidase in CMV-LacZ C2C12 myotubes; assay: CMV-LacZ secondary screen in C2C12 myotubes (β-Gal stabilizing assay); conditions: for CMV-LACZ in Myotubes, signal relative to DMSO: C2C12 CMV-LacZ myotubes, fold relative to DMSO; for CMV-LACZ in Myotubes, value relative to DMSO: SU9516 analogs, C2C12 CMV-LacZ, N=2
How it was run: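 CMV-LacZ C2C12 line (clonal, FDG-screened); myoblasts/myotubes dosed 0.5–40 μM (0.5, 1, 5, 10, 20, 40 μM); n=2 per point; β-gal stabilization read-out.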

[4] = system: α7 integrin (LacZ reporter in α7βgal+/− myoblasts); assay: Myoblast α7+/LacZ integrin FDG assay (Burkin assay in myoblasts, 96-well); conditions: 96-well; for Burkin Assay in Myoblasts, signal relative to DMSO: α7+/LacZ myoblasts; for Burkin Assay in Myoblasts, value relative to DMSO: SU9516 analogs, N=3-6

Cc1cccc(Cn2cnc3c(nnn3Cc3ccc(Cl)cc3)c2=O)c1 [MLS000092785-01]
CMV-LACZ in Myoblasts (β-galactosidase activity relative to DMSO) ([1]; 0.5 uM): 0.8600
CMV-LACZ in Myoblasts (β-galactosidase activity relative to DMSO) ([1]; 1 uM): 1.1653
CMV-LACZ in Myoblasts (β-galactosidase activity relative to DMSO) ([1]; 5 uM): 0.9882
CMV-LACZ in Myoblasts (β-galactosidase activity relative to DMSO) ([1]; 10 uM): 0.7351
CMV-LACZ in Myoblasts (β-galactosidase activity relative to DMSO) ([1]; 20 uM): 1.1004
CMV-LACZ in Myoblasts (β-galactosidase activity relative to DMSO) ([1]; 40 uM): 0.3235
Burkin Assay in Myotubes, α7 integrin LacZ reporter signal relative to DMSO ([2]; 0.5 uM): 1.027
Burkin Assay in Myotubes, α7 integrin LacZ reporter signal relative to DMSO ([2]; 1 uM): 0.9662
Burkin Assay in Myotubes, α7 integrin LacZ reporter signal relative to DMSO ([2]; 5 uM): 1.02
Burkin Assay in Myotubes, α7 integrin LacZ reporter signal relative to DMSO ([2]; 10 uM): 0.8586
Burkin Assay in Myotubes, α7 integrin LacZ reporter signal relative to DMSO ([2]; 20 uM): 0.8293
Burkin Assay in Myotubes, α7 integrin LacZ reporter signal relative to DMSO ([2]; 40 uM): 0.8225
CMV-LACZ in Myotubes, signal relative to DMSO ([3]; 0.5 uM): 0.9105
CMV-LACZ in Myotubes, signal relative to DMSO ([3]; 1 uM): 1.0143
CMV-LACZ in Myotubes, signal relative to DMSO ([3]; 5 uM): 1.0185
CMV-LACZ in Myotubes, signal relative to DMSO ([3]; 10 uM): 1.0738
CMV-LACZ in Myotubes, signal relative to DMSO ([3]; 20 uM): 1.0400
CMV-LACZ in Myotubes, signal relative to DMSO ([3]; 40 uM): 1.0500
Burkin Assay in Myoblasts, signal relative to DMSO ([4]; 0.5 uM): 0.9544
Burkin Assay in Myoblasts, signal relative to DMSO ([4]; 1 uM): 1.035
Burkin Assay in Myoblasts, signal relative to DMSO ([4]; 5 uM): 1.1703
Burkin Assay in Myoblasts, signal relative to DMSO ([4]; 10 uM): 0.9343
Burkin Assay in Myoblasts, signal relative to DMSO ([4]; 20 uM): 0.7833
Burkin Assay in Myoblasts, signal relative to DMSO ([4]; 40 uM): 0.6509

CCN(CC)CCNC(=O)c1c(C)[nH]c(/C=C2\C(=O)Nc3ccc(F)cc32)c1C [NCGC00164631-03]
CMV-LACZ in Myoblasts, value relative to DMSO ([1]; 0.5 uM): 0.8658
CMV-LACZ in Myoblasts, value relative to DMSO ([1]; 5 uM): 0.7817
CMV-LACZ in Myoblasts, value relative to DMSO ([1]; 10 uM): 0.2763
CMV-LACZ in Myoblasts, value relative to DMSO ([1]; 20 uM): 0.1830
CMV-LACZ in Myoblasts, value relative to DMSO ([1]; 40 uM): 0.1767
Burkin Assay in Myotubes, value relative to DMSO ([2]; 0.5 uM): 0.9512
Burkin Assay in Myotubes, value relative to DMSO ([2]; 1 uM): 0.9445
Burkin Assay in Myotubes, value relative to DMSO ([2]; 5 uM): 0.5505
Burkin Assay in Myotubes, value relative to DMSO ([2]; 10 uM): 0.1881
Burkin Assay in Myotubes, value relative to DMSO ([2]; 20 uM): 0.09031
Burkin Assay in Myotubes, value relative to DMSO ([2]; 40 uM): 0.07758
CMV-LACZ in Myotubes, value relative to DMSO ([3]; 0.5 uM): 1.2682
CMV-LACZ in Myotubes, value relative to DMSO ([3]; 1 uM): 1.2736
CMV-LACZ in Myotubes, value relative to DMSO ([3]; 5 uM): 0.8420
CMV-LACZ in Myotubes, value relative to DMSO ([3]; 10 uM): 0.3964
CMV-LACZ in Myotubes, value relative to DMSO ([3]; 20 uM): 0.6690
CMV-LACZ in Myotubes, value relative to DMSO ([3]; 40 uM): 0.7680
Burkin Assay in Myoblasts, value relative to DMSO ([4]; 0.5 uM): 0.8373
Burkin Assay in Myoblasts, value relative to DMSO ([4]; 1 uM): 1.032
Burkin Assay in Myoblasts, value relative to DMSO ([4]; 5 uM): 0.3224
Burkin Assay in Myoblasts, value relative to DMSO ([4]; 10 uM): 0.01373
Burkin Assay in Myoblasts, value relative to DMSO ([4]; 20 uM): 0.01408
Burkin Assay in Myoblasts, value relative to DMSO ([4]; 40 uM): 0.01283

CCn1c(=O)c2cc(C(=O)N(C)c3cc(C)ccc3OC)sc2c2ccccc21 [MLS000731285-01]
CMV-LACZ in Myoblasts (β-galactosidase activity relative to DMSO) ([1]; 0.5 uM): 1.1747
CMV-LACZ in Myoblasts (β-galactosidase activity relative to DMSO) ([1]; 1 uM): 1.0853
CMV-LACZ in Myoblasts (β-galactosidase activity relative to DMSO) ([1]; 5 uM): 1.0851
CMV-LACZ in Myoblasts (β-galactosidase activity relative to DMSO) ([1]; 10 uM): 0.8436
CMV-LACZ in Myoblasts (β-galactosidase activity relative to DMSO) ([1]; 20 uM): 0.9582
CMV-LACZ in Myoblasts (β-galactosidase activity relative to DMSO) ([1]; 40 uM): 0.6572
Burkin Assay in Myotubes, α7 integrin LacZ reporter signal relative to DMSO ([2]; 0.5 uM): 0.8544
Burkin Assay in Myotubes, α7 integrin LacZ reporter signal relative to DMSO ([2]; 1 uM): 0.961
Burkin Assay in Myotubes, α7 integrin LacZ reporter signal relative to DMSO ([2]; 5 uM): 0.8695
Burkin Assay in Myotubes, α7 integrin LacZ reporter signal relative to DMSO ([2]; 10 uM): 0.9409
Burkin Assay in Myotubes, α7 integrin LacZ reporter signal relative to DMSO ([2]; 20 uM): 0.69
Burkin Assay in Myotubes, α7 integrin LacZ reporter signal relative to DMSO ([2]; 40 uM): 0.1953
CMV-LACZ in Myotubes, signal relative to DMSO ([3]; 0.5 uM): 1.2048
CMV-LACZ in Myotubes, signal relative to DMSO ([3]; 1 uM): 1.0562
CMV-LACZ in Myotubes, signal relative to DMSO ([3]; 5 uM): 1.4794
CMV-LACZ in Myotubes, signal relative to DMSO ([3]; 10 uM): 1.3012
CMV-LACZ in Myotubes, signal relative to DMSO ([3]; 20 uM): 1.0310
CMV-LACZ in Myotubes, signal relative to DMSO ([3]; 40 uM): 0.6450
Burkin Assay in Myoblasts, signal relative to DMSO ([4]; 0.5 uM): 1.064
Burkin Assay in Myoblasts, signal relative to DMSO ([4]; 1 uM): 0.9235
Burkin Assay in Myoblasts, signal relative to DMSO ([4]; 5 uM): 0.7727
Burkin Assay in Myoblasts, signal relative to DMSO ([4]; 10 uM): 0.7344
Burkin Assay in Myoblasts, signal relative to DMSO ([4]; 20 uM): 0.604
Burkin Assay in Myoblasts, signal relative to DMSO ([4]; 40 uM): 0.6077
